The record followed here is patent US11084789B2, “Mast-cell modulators and uses thereof” (Beth Israel Deaconess Medical Center, Inc., priority 2016, dated 2021).

One assay addresses CRAC channel (Rattus norvegicus, UniProt Q5M848). In words: Inhibition of thapsigargin-induced calcium influx (intracellular Ca2+, Fluo-4NW) in RBL-2H3 cells. The format is cell-based, rodent. The conditions noted are these: 1 μM thapsigargin, 60 min compound incubation. As to the method: RBL-2H3 cells (ATCC) were seeded in 96-well plate at 4×10^4 cells per well in DMEM-supplemented with 2% FBS and allowed to adhere overnight. Culture medium was then replaced with 50 μl of Ca^2+-free Tyrode solution to load Ca^2+-probe Fluo-4NW (Molecular Probe, Thermo Fisher, MA, USA) at 1:1 to the cells. New compound at indicated concentration was supplied during the probe loading from the beginning. Cells were incubated in the presence or absence of new compound for 60 minutes in the Ca^2+-free medium at 37° C. During the last 5 minutes of incubation, cells were treated with 1 μM thapsigargin (Sigma Aldrich) to deplete [Ca^2+]ER. 20 mM CaCl2 in saline solution was supplemented back to the [Ca^2+]ER-depleted cells to be 2 mM as final. Cell medium was removed 1 minute after Ca^2+ reloading, and changes in Fluo-4NW fluorescence (RFU) were recorded with the multi-mode plate reader (FilterMax F5, Molecular Devices/Thermo Fisher Scientific, MA, USA) at an excitation wavelength of 485 nm and an emission wavelength of 535 nm.
(§1) IC50 and EC50 were calculated by nonlinear regression using Prims Graphpad software. Statistical analysis was performed by one-way ANOVA and post-hoc test (Tukey's test).
Inhibitory activity of calcium influx by the described compounds was determined using the RBL-2H3 rodent MC cell line as the primary in vitro assay. […]

A further assay relates to RBL-2H3 cells. In words: Mast cell degranulation: β-hexosaminidase release from thapsigargin-activated RBL-2H3 cells. The conditions noted are these: 1 μM thapsigargin. The format is cell-based, rodent. As to the method:
(§2) [Ca^2+]ER in RBL2H3 cells were depleted by Tg in the same manner in the presence of the CRAC channel blockers as for [Ca^2+]i measurement but without loading the cells with Fluo-4NW. Then 200 μl of DMEM-3% FBS (containing 3 mM Ca^2+) was supplemented back in the presence of the corresponding concentration of CRAC channel blockers. Thirty minutes after Ca^2+-add back culture supernatant was collected for degranulation measurement. Degranulation was measured as secreted β-hexosaminidase according to the protocol of the assay kit (Sigma-Aldrich, MO, USA). Nuclear fraction was prepared from the cells for NFAT by using a subcellular protein fractionation kit (NE-PER™ Nuclear and Cytoplasmic Extraction Reagents, Pierce Biotechnology, Thermo Fisher Scientific, MA, USA). Nuclear NFAT-c1 was measured with an ELISA kit (Active Motif, CA, USA). At this time point TNFα was measured as pre-stored release with ELISA kits (R&D Systems, MN, USA). In a part after Ca^2+ add back incubation was prolonged for 4 h to measure de novo production of the cytokine TNFα.
Compound 12 was used to determine the inhibition of MC degranulation by measuring the release of pre-stored β-hexosaminidase 03-hex) upon MC activation. […] 30 Minutes after assay media were replenished with extracellular Ca^2+, supernatants and cell lysates were analyzed for β-hex concentrations by ELISA.

For a further assay, the system named is NFAT-c1. In words: Nuclear translocation of NFAT in activated RBL cells (nuclear NFAT-c1 ELISA). The format is cell-based, rodent. As to the method: as §2
The inhibition of nuclear translocation of the nuclear factor of activated T-cells (NFAT) by compound 12 in activated MCs was determined. […] Nuclear fraction was prepared from the cells by subcellular protein fractionation, and the nuclear NFAT-c1 content was measured by ELISA. […]
(In an ELISA, binding on a coated surface is turned into a signal by an enzyme label.)

The subject of another assay is TNFα. In words: TNFα protein secretion by activated RBL cells (ELISA). The format is cell-based, rodent. Particulars: secreted TNFα (pre-stored plus de novo) 4 hours after Ca2+ re-exposure. As to the method: as §2, §1
Mast cells can secrete pre-stored TNFα immediately upon activation, as well as de novo synthesized TNFα that takes a few hours to produce. RBL cells were activated similarly as described above, in the presence of various concentrations of a CRAC channel blocker. 4 Hours after RBL cells were re-exposed to Ca^2+, secreted TNFα (which accounted for the combined protein from pre-stored and de novo synthesized TNFα) in the supernatants were measured by ELISA.

Assay [1] has as its system wounds of diabetic (STZ) C57B16 mice. In words: Wound healing in diabetic mice. The format is in vivo. Particulars: DM mice. From the text: (§3) C57B16 mice were made diabetic (DM) using Streptozotocin (STZ) and rabbits were made DM using alloxan. A 10-day wound-healing period was chosen since at least 80% wounds in non-DM mice and rabbits heal by that time-point. A dressing based on an alginate bandage for topical sustained release of Compound 1 was generated following the methods described in WO 2014/169250, and was then applied the shaved dorsum of DM mice either before (pre-wound) or after wounds (post-wound) were introduced. A comparison was made with the FDA-approved MC stabilizer, disodium cromoglycate (DSCG), 50 mg/kg DSCG (Intraperitoneal (ip) daily, 10 consecutive days prior to wounding) in non-DM and DM mice followed by wound procedure. Wound healing was monitored for 10 days.

Assay [2] has as its system macrophages in skin of DM mice. In words: M1/M2 macrophages in intact skin of diabetic mice. The format is in vivo.
Excerpt: as §3

Entries after “also recorded” stand apart in the source; their conditions may differ.

Sequence of CRAC channel (Q5M848 whole entry): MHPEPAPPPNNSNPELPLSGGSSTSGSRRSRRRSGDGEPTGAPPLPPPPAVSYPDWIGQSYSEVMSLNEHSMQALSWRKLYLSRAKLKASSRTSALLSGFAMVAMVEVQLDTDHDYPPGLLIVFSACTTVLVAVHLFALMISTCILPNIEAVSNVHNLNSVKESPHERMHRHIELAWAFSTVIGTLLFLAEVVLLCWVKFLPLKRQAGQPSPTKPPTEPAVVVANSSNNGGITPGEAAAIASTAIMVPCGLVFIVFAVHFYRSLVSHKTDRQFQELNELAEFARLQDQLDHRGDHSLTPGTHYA
Sequence of CRAC channel (P84903 23-685, further chain): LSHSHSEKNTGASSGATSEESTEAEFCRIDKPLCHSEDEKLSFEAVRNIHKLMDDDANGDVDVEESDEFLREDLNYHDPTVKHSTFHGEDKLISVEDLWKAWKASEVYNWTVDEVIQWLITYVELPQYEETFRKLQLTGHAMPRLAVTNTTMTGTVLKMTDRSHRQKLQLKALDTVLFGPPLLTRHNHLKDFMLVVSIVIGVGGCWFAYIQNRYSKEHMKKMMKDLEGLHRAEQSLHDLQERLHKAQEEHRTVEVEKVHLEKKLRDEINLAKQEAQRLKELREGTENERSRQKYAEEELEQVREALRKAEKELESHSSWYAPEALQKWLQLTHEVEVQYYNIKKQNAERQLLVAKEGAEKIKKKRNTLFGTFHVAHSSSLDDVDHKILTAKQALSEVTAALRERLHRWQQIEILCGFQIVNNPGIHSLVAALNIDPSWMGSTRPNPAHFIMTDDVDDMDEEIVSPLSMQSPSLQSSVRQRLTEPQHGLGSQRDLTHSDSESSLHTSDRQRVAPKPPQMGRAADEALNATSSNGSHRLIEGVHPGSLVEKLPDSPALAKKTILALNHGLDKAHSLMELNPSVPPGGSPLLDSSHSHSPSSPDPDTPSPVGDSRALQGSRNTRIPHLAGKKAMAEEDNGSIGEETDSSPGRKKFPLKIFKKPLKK

As a reminder, the IC50 is the point on the concentration scale where inhibition reaches its midpoint. As to `O=C(Nc1nn(Cc2ccc(Cl)cc2Cl)c2ccccc12)c1ccccc1F` [Compound 3, N-[1-[(2,4-dichlorophenyl)methyl]indazol-3-yl]-2-fluoro-benzamide], the 50% inhibitory concentration (IC50) on CRAC channel came to 29000 nM.
For `O=C(Nc1nn(Cc2ccc(Cl)cc2Cl)c2ccccc12)c1ccncc1F` [Compound 12, N-[1-[(2,4-dichlorophenyl)methyl]indazol-3-yl]-3-fluoro-pyridine-4-carboxamide], the “inhibition of β-hex release at the highest concentration tested” value in the assay with RBL-2H3 cells (40% of β-hex released without inhibitor) was “nearly complete inhibition of β-hex release”. In addition, in the assay on RBL-2H3 cells (30 min after Ca2+ add back, various concentrations), the “inhibition of β-hex release” value was “significantly and dose-dependently inhibited the release of β-hex; also recorded: dose-dependent inhibition”. In addition, the “nuclear fraction of NFAT-c1 in activated RBL cells” value with NFAT-c1 (1 μM thapsigargin, 30 min after Ca2+ add back, various concentrations, 5-fold increase without blocker) was “significantly and dose-dependently reduced the nuclear fraction of NFAT-c1; also recorded: dose-dependent inhibition”. Further, in the assay on NFAT-c1 (10 μM and higher, activated RBL cells), the “levels of nuclear NFAT at 10 μM and higher concentrations” value is reported as “restore the levels of nuclear NFAT to that of resting MCs”. For the same compound, the IC50 in the assay on TNFα turned out to be 280 nM.
With `O=C(Nc1c(F)cncc1F)c1nn(Cc2ccc(Cl)cc2Cl)c2ccccc12` [Compound 15, 1-[(2,4-dichlorophenyl)methyl]-N-(3,5-difluoro-4-pyridyl)indazole-3-carboxamide], the IC50 in the assay on TNFα turned out to be 140 nM.
Take `O=C(Nc1c(F)cccc1Cl)c1nn(Cc2ccc(Cl)cc2Cl)c2ccccc12` [Compound 8, N-(2-chloro-6-fluoro-phenyl)-1-[(2,4-dichlorophenyl)methyl]indazole-3-carboxamide]: the IC50 in the assay with TNFα turned out to be 740 nM.
With `O=C(Nc1ccncc1F)c1cn(Cc2ccc(Cl)cc2Cl)c2ccccc12` [Compound 11, 1[(2,4-dichlorophenyl)methyl]-N-(3-fluoro-4-pyridyl)indole-3-carboxamide], the IC50 with TNFα is 580 nM.
The same measure, in the same setting: as for `O=C(Nc1c(F)cccc1F)c1nn(Cc2ccc(Cl)cc2Cl)c2ccccc12` [Compound 7, 1-[(2,4-dichlorophenyl)methyl]-N-(2,6-difluorophenyl)indazole-3-carboxamide], the figure is 470 nM.
In the case of `O=C(Nc1c(F)cccc1F)c1cn(Cc2ccc(Cl)cc2Cl)c2ccccc12` [Compound 1, 1-[(2,4-dichlorophenyl)methyl]-N-(2,6-difluorophenyl)indole-3-carboxamide], the wound healing entry in assay [1] (topical alginate dressing, 10 days pre-wounding or 10 days post-wounding, monitored 10 days) is “improved wound healing similar to systemic DSCG pre-treatment”. For the same compound, in assay [2] (treatment for 10 days without any wound), the “number of M2 macrophages in skin” value was “increased the number of M2 macrophages”.
On to `O=C([O-])c1cc(=O)c2c(OCC(O)COc3cccc4oc(C(=O)[O-])cc(=O)c34)cccc2o1.[Na+].[Na+]` [DSCG, disodium cromoglycate, reference compound], for which the wound healing entry in assay [1] (50 mg/kg ip daily, 10 consecutive days prior to wounding, p<0.05) is “improved diabetic mouse wound healing”. Moreover, in assay [2] (DSCG treatment), the “M1/M2 ratio in intact skin” value is “reduced M1/M2 ratio in intact skin”.
In the case of `O=C(Nc1ccc(F)cc1F)c1nn(Cc2ccc(Cl)cc2Cl)c2ccccc12` [Compound 14, 1-[(2,4-dichlorophenyl)methyl]-N-(2,4-difluorophenyl)indazole-3-carboxamide], the IC50 in the assay on TNFα stood at 640 nM.
